Laboratory results published in ChEMBL document CHEMBL1159090 (Bioorg Med Chem Lett, 2010).

Legend:
[1] = molecular target: 5-hydroxytryptamine receptor 2A (Homo sapiens, UniProt P28223); assay: Displacement of [3H]Ketanserin from human cloned 5HT2A receptor
Histamine H1 receptor = Histamine H1 receptor (Homo sapiens, UniProt P35367); assay: Displacement of [3H]Pyrilamine from human cloned histamine H1 receptor
Chain of Histamine H1 receptor (P35367 whole entry): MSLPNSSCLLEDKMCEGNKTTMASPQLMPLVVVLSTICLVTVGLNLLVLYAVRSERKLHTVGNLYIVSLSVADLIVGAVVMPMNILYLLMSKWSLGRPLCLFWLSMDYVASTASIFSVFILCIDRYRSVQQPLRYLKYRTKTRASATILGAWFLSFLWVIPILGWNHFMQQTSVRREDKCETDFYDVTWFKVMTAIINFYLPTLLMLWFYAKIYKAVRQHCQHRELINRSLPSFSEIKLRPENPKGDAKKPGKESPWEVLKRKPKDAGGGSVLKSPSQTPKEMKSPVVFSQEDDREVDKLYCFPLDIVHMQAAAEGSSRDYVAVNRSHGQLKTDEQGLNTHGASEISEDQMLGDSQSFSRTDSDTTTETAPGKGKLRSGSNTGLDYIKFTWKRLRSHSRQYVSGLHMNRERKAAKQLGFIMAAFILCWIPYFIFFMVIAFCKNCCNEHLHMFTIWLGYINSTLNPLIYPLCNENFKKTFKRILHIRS

Chain of 5-hydroxytryptamine receptor 2A (P28223 whole entry): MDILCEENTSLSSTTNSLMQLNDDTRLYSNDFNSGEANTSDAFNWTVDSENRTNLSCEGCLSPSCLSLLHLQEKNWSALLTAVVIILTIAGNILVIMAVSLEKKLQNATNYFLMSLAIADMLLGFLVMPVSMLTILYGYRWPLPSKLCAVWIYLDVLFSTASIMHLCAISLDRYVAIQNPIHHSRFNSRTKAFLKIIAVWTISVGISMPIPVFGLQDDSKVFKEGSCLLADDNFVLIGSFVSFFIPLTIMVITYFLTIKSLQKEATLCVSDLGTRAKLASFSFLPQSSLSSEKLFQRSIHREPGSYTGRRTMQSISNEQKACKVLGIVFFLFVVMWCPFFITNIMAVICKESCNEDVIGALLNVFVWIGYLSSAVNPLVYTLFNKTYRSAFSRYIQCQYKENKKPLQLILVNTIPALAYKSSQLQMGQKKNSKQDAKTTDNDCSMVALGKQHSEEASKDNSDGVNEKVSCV

| SMILES | Ki [1] | Ki (Histamine H1 receptor) |
| --- | --- | --- |
| c1ccc(CCNCC2c3ccccc3Cc3ccccc32)cc1 | 400 nM | 242 nM |
| c1ccc(CCCCNCC2c3ccccc3Cc3ccccc32)cc1 | 365 nM | 964 nM |
| COc1ccc2c3c(ccc2c1)Cc1ccccc1C3CN (stereo not drawn) | 21 nM | 2640 nM |
| c1ccc(CCCNCC2c3ccccc3Cc3ccccc32)cc1 | 223 nM | 725 nM |
